This is an account of results in paper PMC12728616, “Regioselective Glycosylation of Fluorine-18-Labeled Sorbitol for Enhanced Bacterial Detection In Vivo Using PET” (JACS Au, 2025).

One data set concerns S. aureus. On the set-up: method as in previously reported S. aureus sensitive PET tracers. The settings on record: S. aureus infection; ref previously reported S. aureus sensitive PET tracers; cited from earlier work.
A short description of data set [1]: Dynamic PET/CT and ex vivo biodistribution in uninfected mice. The following applies: uninfected mice. The protocol: To assess the effect of [^18F]-FDS glycosylation on tissue uptake in vivo, we performed dynamic PET/CT scans for 90 min after the intravenous injection of [^18F]-FNT, [^18F]-FMT, and [^18F]-FDS in uninfected mice, followed by ex vivo analysis.
(§1) μPET/CT imaging was conducted using a nanoScan μPET/CT instrument (PET123S/CT1512, Mediso). Mice were anesthetized with 2% isoflurane/oxygen for intravenous administration of ^18F-tracers (∼5 MBq in 150 μL) via tail vein and maintained during data acquisition. PET data of uninfected mice were acquired in the list mode for 90 min, starting immediately after ^18F-tracer administration, followed by a CT scan. The PET data were reconstructed into three-dimensional volumes and coregistered with CT images using manufacturer-provided software in 53 dynamic frames (15 × 2 s, 6 × 5 s, 6 × 10 s, 4 × 30 s, 6 × 30 s, and 16 × 300 s). PET data of infected mice were acquired for 20 min, starting at 70 min postinjection of ^18F-tracer (mid time 80 min), followed by a CT scan. The list mode PET data were reconstructed into three-dimensional volumes in a single static frame. All PET scans were corrected for ^18F decay, dead time, and random coincidences and reconstructed into a 160 × 160 × 184 matrix with voxel size 0.8 mm using a three-dimensional ordered subject expectation maximization (OSEM) algorithm (40 iterations, 1 subset). Both attenuation and scatter corrections were applied to PET reconstructions using the coregistered CT. ROIs were drawn manually around the brain, lungs, liver, kidney, and urinary bladder using Amide software to generate image-derived TACs. For the estimation of blood pool radioactivity over time, ROIs were drawn on the left atrium. To estimate the plasma half-life of tracers, the TAC of the blood pool was fitted to a two-compartment model using a biexponential decay function: C t(t) = Ae ^–αt + Be ^ ‑βt , where C t(t) is the tracer concentration (% IDcc^–1) at time (t), A and B are the intercepts, and α and β are the distribution and elimination rate constants, respectively. , Quantitative uptake values are expressed as % IDcc^–1, representing the percent of the total injected dose per cubic centimeter. For the S. aureus myositis model, identical volume ROIs were drawn corresponding to the peak uptake of [^18F]-FNT at the live S. aureus inoculated site and heat-killed S. aureus inoculated site, respectively.

The test system of data set [2] is K. pneumoniae. The experiment in a line: PET/CT in K. pneumoniae pneumonia murine model. It counts as in vivo, mice. The protocol:
Given promising low background signals in uninfected mice, we further evaluated [^18F]-FNT and [^18F]-FMT in two different clinically relevant mouse models of lung and muscle infections. […] PET scanning was performed at 24 h postintranasal bacterial installation (Figure A). […] The ROI-derived infected/uninfected lung ratios of [^18F]-FDS, [^18F]-FMT, and [^18F]-FNT were approximately 3.2, 6.1, and 5.9-fold, respectively (Figure C), also supported by the ex vivo infected/uninfected lung ratio of [^18F]-FDS (∼1.6-fold), [^18F]-FMT (∼5.7-fold), and [^18F]-FNT (∼5.7-fold) (Figure D). Post-PET scans, infected lungs were harvested to determine colony forming units (CFUs). No significant differences in bacterial counts were observed among [^18F]-FDS, [^18F]-FMT, and [^18F]-FNT (Figure E). To confirm radiotracer specificity, we also evaluated mice inoculated with 10x heat-killed K. pneumoniae into lungs (Supporting Information Figure S5A–C).
(§2) All animal procedures were conducted in accordance with UCSF institutional guidelines and were approved by the Institutional Animal Care and Use Committee (IACUC). Female CBA/J mice (9 and 11 weeks old) were used for the study. Pulmonary infection and bacterial myositis models were established based on previously published protocols. , For pulmonary infection, 50 μL of K. pneumoniae (5 × 10^6 CFU) or 10× heat-killed K. pneumoniae were administered intranasally under anesthesia 24 h prior to imaging using PET. After PET scans, infected lungs were homogenized in PBS and plated on LB agar. Plates were incubated overnight at 37 °C to quantify the bacterial burden. For the bacterial myositis model, mice were intramuscularly injected with either 1 × 10^6 CFUs of live S. aureus (MSSA or MRSA) or 1 × 10^7 CFUs of heat-killed bacteria (50 μL) into the left and right deltoid muscles, respectively, 10 h prior to imaging using PET. Immediately following all imaging studies, target tissues were harvested, and radioactivity was measured using a gamma counter.
as §1, with “For the S. aureus myositis model, identical volume ROIs were drawn corresponding to the peak uptake of [^18F]-FNT at the live S. aureus inoculated site and heat-killed S. aureus inoculated site, respectively.” left out

For a further data set, the system named is Gram-positive bacteria. The experiment in a line: In vitro uptake of 18F-tracers across the Gram-positive panel. It is filed as cell-based. The following applies: panel of Gram-positive pathogens; FLT/FCT except E. faecalis; FMT versus FNT. The protocol: (§3) In vitro evaluation of ^18F-tracers was conducted according to our established procedure. Briefly, bacteria were incubated overnight at 37 °C, subcultured into a fresh medium at an initial OD600 of 0.05, and then allowed to reach the mid log phase (OD600 ∼ 0.4). The cultures were subsequently incubated with ^18F-tracers (final concentration: 0.1 MBq/mL) at 37 °C for 90 min. Subsequently, 300 μL aliquots of these cultures were centrifuged at 13,200 rpm for 6 min. The resulting pellets were washed with 300 μL of phosphate-buffered saline (PBS). The radioactivity of the pellets and supernatants was measured using a gamma counter. Uptake values were normalized to colony-forming units (CFUs).

The test system of the next data set is Enterococcus faecalis. Description: In vitro uptake of 18F-tracers by bacteria. It is filed as cell-based. The following applies: E. faecalis; 37 °C, 90 min. The protocol:
as §3

For the next data set, the system named is MRSA. The experiment in a line: PET/CT in MRSA myositis murine model. The following applies: MRSA myositis. It counts as in vivo, mice. The protocol:
We next compared [^18F]-FNT and [^18F]-FMT PET in a S. aureus myositis model. […] To compare the in vivo detection sensitivity of [^18F]-FNT and [^18F]-FMT in a MRSA myositis model, we injected the left deltoid with live MRSA and the right deltoid with 10x heat-killed MRSA, respectively (Figure B).
as §2, with “For the bacterial myositis model, mice were intramuscularly injected with either 1 × 10^6 CFUs of live S. aureus (MSSA or MRSA) or 1 × 10^7 CFUs of heat-killed bacteria (50 μL) into the left and right deltoid muscles, respectively, 10 h prior to imaging using PET.” left out
as §1

The conditions of data set [3]: in vivo; cited from earlier work.
Data set [4] concerns K. pneumoniae. The experiment in a line: In vitro uptake of 18F-tracers by bacteria. It is filed as cell-based, Klebsiella pneumoniae. The protocol: as §3
Where [5] appears, read: blood pool TAC, two-compartment fit.

`Nc1ccc([11C](=O)O)cc1` [[11C]PABA]: in the data set on S. aureus, the target-to-nontarget ratio was around 28 fold.

Consider `Nc1ccc(C(=O)O)c([18F])c1` [2-[18F]F-PABA], for which the target-to-nontarget ratio with S. aureus is given as around 8 fold.

`OCC1OC(OC2C(CO)OC(O)C([18F])C2O)C(O)C(O)C1O` (stereo not drawn) [[18F]FDM]: the target-to-nontarget ratio in the data set on S. aureus was around 6 fold.

For the molecule `[11CH3]SCC[C@@H](N)C(=O)O` [D-[11C]Met], in the data set on S. aureus, the target-to-nontarget ratio is around 10 fold.

On to `OCCOCc1ccc(-c2noc(-c3ccc(OCC[18F])c(C(F)(F)F)c3)n2)cc1` [[18F]TZ4877], for which the target-to-nontarget ratio in the data set with S. aureus is around 1.3 fold.

With `OC[C@@H](O)[C@@H](O)[C@H](O)[C@@H]([18F])CO` [[18F]FDS, 2-deoxy-2-[18F]fluoro-D-sorbitol, reference compound], in data set [1] (i.v.), the “area under the curve (AUC0→90min) in bladder” value is 36165.8 ± 3961.5 % IDcc^–1·min and the “area under the curve (AUC0→90min) in liver” value worked out at 289.4 ± 21.3 % IDcc^–1·min. For the same molecule, in data set [1] (i.v., dynamic PET 90 min), the “peak uptake (Cmax) in bladder” value is 525.5 ± 37.0 % IDcc^–1, the “peak uptake (Cmax) in kidneys” value came to 71.3 ± 9.7 % IDcc^–1 and the “peak uptake (Cmax) in liver” value is reported as 28.6 ± 5.0 % IDcc^–1. Also, in data set [1] (setting [5]), the “elimination half-life (T1/2β)” value was 18.74 min and the “plasma distribution half-life (T1/2α)” value is reported as 0.43 min. For the same molecule, the “ex vivo infected/uninfected lung ratio” value in the data set with K. pneumoniae [2] (ex vivo gamma counting after PET) is on record as around 1.6 fold. For the same molecule, the “ROI-derived infected/uninfected lung ratio” value in the data set on K. pneumoniae [2] (in vivo PET, 80 min postinjection (mid time), 24 h after intranasal K. pneumoniae) is recorded as “approximately 3.2 fold”. In addition, the “in vitro uptake in Gram-positive bacteria” value in the data set with Gram-positive bacteria is reported as “not taken up”. Further, the in vitro uptake entry in the data set on Enterococcus faecalis is given as “accumulated”.

For the molecule `OC[C@@H](O)[C@@H](O)[C@H](O)[C@H]([18F])CO` [[18F]FMtl], in the data set with S. aureus, the target-to-nontarget ratio is around 4 fold.

`N[C@H](C[18F])C(=O)O` [D-[18F]FAla]: in the data set with S. aureus, the target-to-nontarget ratio is reported as around 2 fold.

As to `OCC1OC(OC2C(O)C(CO)OC(O)C2[18F])C(O)C(O)C1O` (stereo not drawn) [[18F]FSK, reference compound], the target-to-nontarget ratio with S. aureus is around 7 fold. In the data set on MRSA (PET 80 min postinjection (mid time)), the “ratio of live/heat-killed S. aureus inoculated sites, in vivo” value was determined as 28 fold. Besides, the “ratio of live/heat-killed S. aureus inoculated sites, ex vivo” value with MRSA (ex vivo analysis) amounted to 17 fold.

Consider `OC[C@H]1OC(O)[C@H]([18F])[C@@H](O)[C@@H]1O` (stereo partly drawn) [[18F]FDG], for which the known effective dose in data set [3] is on record as 0.017 mSv/MBq.

As to `OC[C@@H](O)[C@@H](O[C@@H]1O[C@H](CO)[C@@H](O)[C@H](O)[C@H]1O)[C@H](O)[C@@H]([18F])CO` [[18F]FCT, 2-deoxy-2-[18F]fluoro-D-cellobiotol], in the data set with Gram-positive bacteria, the “in vitro uptake in Gram-positive bacteria” value is reported as “negligible uptake”. In addition, the in vitro uptake entry in the data set with K. pneumoniae [4] is “poorly taken up”.

As for `[11CH3][C@@H](N)C(=O)O` [D-[3-11C]Ala], the target-to-nontarget ratio in the data set with S. aureus is on record as around 4 fold.

Turning to `N[C@H](CC[11C](N)=O)C(=O)O` [D-[5-11C]-Gln], the target-to-nontarget ratio in the data set on S. aureus was around 2.3 fold.

On to `[2H]C([2H])([18F])[C@@]([2H])(N)C(=O)O` [D-[18F]FAla-d3], for which the target-to-nontarget ratio in the data set on S. aureus was around 2.4 fold.
